Values quoted from earlier work, collected in patent US20240408573A1, “ACIDIC GAS ADSORBENT AND ACIDIC GAS ADSORPTION DEVICE” (NITTO DENKO CORPORATION, priority 2021, published 2024).

Tests used:
[1] = safety index in terms of handling
[2] = safety index in terms of handling; remark: listed apart in the source
[3] = tested on: rabbits
[4] = safety index in terms of handling; remark: listed apart in the source

For `NCCNCCNCCN` [TETA, triethylenetetramine], the “Mutagenicity test (Ames test)” value [1] is given as “Positive”, the “Fire Service Act” value [2] is given as “Hazardous material” and the “Skin irritation test (rabbit)” value [3] is given as “Strong irritant”. For the same molecule, the “Poisonous and Deleterious Substances Control Act” value [4] was “Deleterious”.
